Residue numbers refer to the chain shown, from its start.
Experiments:
PntM F232A [1] = target: T1, PntM F232A (Streptomyces arenae, UniProt E3VWI3, F232A); assay: Substrate binding assay
T1 sequence (E3VWI3 1-398 F232A): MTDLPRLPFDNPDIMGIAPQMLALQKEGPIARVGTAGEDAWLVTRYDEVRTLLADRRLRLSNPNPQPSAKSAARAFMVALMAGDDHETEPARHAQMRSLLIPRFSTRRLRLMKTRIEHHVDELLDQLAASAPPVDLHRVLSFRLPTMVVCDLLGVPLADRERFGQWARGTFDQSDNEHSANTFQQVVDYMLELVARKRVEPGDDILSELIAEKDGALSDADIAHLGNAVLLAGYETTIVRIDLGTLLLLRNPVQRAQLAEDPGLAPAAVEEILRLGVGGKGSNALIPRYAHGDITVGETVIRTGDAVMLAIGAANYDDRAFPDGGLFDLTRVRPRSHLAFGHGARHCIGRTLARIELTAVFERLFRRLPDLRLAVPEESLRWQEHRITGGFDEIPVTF

PntM-F232G = target: T2, PntM-F232G (Streptomyces arenae, UniProt E3VWI3, F232G); assay: Substrate binding assay
T2 sequence (E3VWI3 1-398 F232G): T1 sequence (E3VWI3 1-398 F232A) with A232G

PntM F232L [2] = target: T3, PntM F232L (Streptomyces arenae, UniProt E3VWI3, F232L); assay: Substrate binding assay
T3 sequence (E3VWI3 1-398 F232L): T1 sequence (E3VWI3 1-398 F232A) with A232L

PntM M81A [3] = target: T4, PntM M81A (Streptomyces arenae, UniProt E3VWI3, M81A); assay: Substrate binding assay
T4 sequence (E3VWI3 1-398 M81A): T1 sequence (E3VWI3 1-398 F232A) with M81A, A232F

PntM M81C [4] = target: T5, PntM M81C (Streptomyces arenae, UniProt E3VWI3, M81C); assay: Substrate binding assay
T5 sequence (E3VWI3 1-398 M81C): T1 sequence (E3VWI3 1-398 F232A) with M81C, A232F

PntM M77S [5] = target: T6, PntM M77S (Streptomyces arenae, UniProt E3VWI3, M77S); assay: Substrate binding assay
T6 sequence (E3VWI3 1-398 M77S): T1 sequence (E3VWI3 1-398 F232A) with M77S, A232F

PntM M81C-BME [6] = target: T7, PntM M81C-BME (Streptomyces arenae, UniProt E3VWI3, M81C); assay: Substrate binding assay
T7 sequence (E3VWI3 1-398 M81C): T1 sequence (E3VWI3 1-398 F232A) with M81C, A232F

PntM F232Y = target: T8, PntM F232Y (Streptomyces arenae, UniProt E3VWI3, F232Y); assay: Substrate binding assay, PntM F232Y; details: PntM F232Y mutant
T8 sequence (E3VWI3 1-398 F232Y): T1 sequence (E3VWI3 1-398 F232A) with A232Y

PntM F232H = target: T9, PntM F232H (Streptomyces arenae, UniProt E3VWI3, F232H); assay: Substrate binding assay, PntM F232H; details: PntM F232H mutant
T9 sequence (E3VWI3 1-398 F232H): T1 sequence (E3VWI3 1-398 F232A) with A232H

PntM F232A [7] = target: T1, PntM F232A; assay: Steady-state kinetics and product profile, PntM F232A; type: biochemical; details: F232A mutant
PntM F232L [8] = target: T3, PntM F232L; assay: Steady-state kinetics and product profile, PntM F232L; type: biochemical; details: F232L mutant
PntM M81A [9] = target: T4, PntM M81A; assay: Steady-state kinetics and product profile, PntM M81A; type: biochemical; details: M81A mutant
PntM M81C [10] = target: T5, PntM M81C; assay: Steady-state kinetics and product profile, PntM M81C; type: biochemical; details: M81C mutant
PntM M77S [11] = target: T6, PntM M77S; assay: Steady-state kinetics and product profile, PntM M77S; type: biochemical; details: M77S mutant
PntM M81C-BME [12] = target: T7, PntM M81C-BME; assay: Steady-state kinetics and product profile, PntM M81C-BME; type: biochemical; details: M81C-BME mutant
[13] = target: wild-type PntM (CYP161C2) (Streptomyces arenae, UniProt E3VWI3); assay: Substrate binding assay
[14] = comparator not stated, figures fit comparison with M81C

Chain of wild-type PntM (CYP161C2) (E3VWI3 whole entry): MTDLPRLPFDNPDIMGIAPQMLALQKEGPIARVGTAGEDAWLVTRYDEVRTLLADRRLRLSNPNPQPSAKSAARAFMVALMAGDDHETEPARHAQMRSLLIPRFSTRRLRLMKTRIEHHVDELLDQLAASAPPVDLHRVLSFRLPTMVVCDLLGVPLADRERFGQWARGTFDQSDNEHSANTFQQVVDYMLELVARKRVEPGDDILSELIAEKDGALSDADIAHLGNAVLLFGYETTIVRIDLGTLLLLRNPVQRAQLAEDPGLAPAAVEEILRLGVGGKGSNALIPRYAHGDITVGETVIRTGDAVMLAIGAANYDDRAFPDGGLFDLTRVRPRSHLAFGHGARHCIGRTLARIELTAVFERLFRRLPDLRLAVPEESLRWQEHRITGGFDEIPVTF

CC1(C)C[C@H]2C=C(C(=O)O)[C@@H]3COC(=O)[C@]4(CO4)[C@]23C1 [compound 2, pentalenolactone F]
Kd (PntM F232A [1]): 270 ± 85 µM
Kd (PntM-F232G): 225 ± 45 µM
Kd (PntM F232L [2]): 160 ± 12 µM
Kd (PntM M81A [3]): 340 ± 90 µM
KD greater than that of wild-type PntM (PntM M81C [4]): 4-6 fold
Kd (PntM M81C [4]): 43 ± 3 µM
Kd (PntM M77S [5]): 115 ± 8 µM
KD greater than that of wild-type PntM (PntM M81C-BME [6]): 4-6 fold
Kd (PntM M81C-BME [6]): 31 ± 1 µM
binding of substrate (PntM F232Y): did not bind
binding of substrate (PntM F232H): did not bind
lower kcat/Km than wild type PntM (PntM F232A [7]): > 60 fold
product profile (GC-MS) (PntM F232A [7]): exclusively pentalenolactone
decrease in kcat compared to wild type PntM (PntM F232L [8]): 20 fold
reduction in Km compared to wild type PntM (PntM F232L [8]): 3 fold
reduction in kcat/Km compared to wild type PntM (PntM F232L [8]): 7 fold
product profile (GC-MS of total product mixture) (PntM F232L [8]; no detectable hydroxylation products): only the natural oxidative rearrangement product, pentalenolactone (1)
product profile (GC-MS) (PntM M81A [9]): no change in product profile
less active (PntM M81A [9]; [14]): 5-15 fold
product profile (GC-MS) (PntM M81C [10]): exclusive formation of the oxidative rearrangement product 1
reduction in kcat/Km compared to wild-type (PntM M81C [10]): 10 fold
product profile (GC-MS) (PntM M77S [11]): no change in product profile
less active (PntM M77S [11]; [14]): 5-15 fold
product profile (GC-MS) (PntM M81C-BME [12]): no change in product profile
Kd [13]: 7.2 ± 0.8 µM

CC1(C)C[C@H]2C[C@@H](C(=O)O)[C@@H]3COC(=O)[C@]4(CO4)[C@]23C1 [compound 7, 6,7-dihydropentalenolactone F]
Kd [13]: 170 ± 17 µM
binding weaker than natural substrate 2 [13]: ~25 times
P450 binding spectrum ([13]; wild-type PntM, UV shift from 420 nm to 390 nm): normal Type I P450 binding spectrum

From article PMC5042876 (Journal of the American Chemical Society, 2016)
